From ChEMBL document CHEMBL1201862, “PubChem BioAssay data set” (2004)
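Assay format: 96-well plates, 48-hour exposure. GI50: concentration for 50% inhibition of growth.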 The source made the active and inactive calls. Cut-off read from the data, not from the text of the source: active = GI50 up to about 1.1 µM and inactive = higher.

Legend:
Test in all cases: inhibition of tumour cell growth, NCI panel, 48 h
A498 = test system: A498
A549 = test system: A549
CAKI-1 = test system: CAKI-1
DU-145 = test system: DU-145
HCT-15 = test system: HCT-15
HL-60 = test system: HL-60
LOX IMVI = test system: LOX IMVI
MDA-MB-435 = test system: MDA-MB-435
NCI-H460 = test system: NCI-H460
NCI-H522 = test system: NCI-H522
PC-3 = test system: PC-3
RPMI-8226 = test system: RPMI-8226
SK-MEL-2 = test system: SK-MEL-2
SK-MEL-5 = test system: SK-MEL-5
SK-OV-3 = test system: SK-OV-3
SNB-19 = test system: SNB-19
SR = test system: SR
T47D = test system: T47D
TK-10 = test system: TK-10
BT-549 = test system: BT-549

Measured: GI50

O=C(Nc1ccccc1C(=O)NCc1ccccc1)/C(=C/c1ccccc1O)NC(=O)c1ccccc1
24.7 µM: HCT-15
inactive: A498 > 100 µM | A549 > 100 µM | CAKI-1 > 100 µM | DU-145 > 100 µM | HL-60 55.5 µM | LOX IMVI 98.2 µM | MDA-MB-435 50.7 µM | NCI-H460 > 100 µM | NCI-H522 > 100 µM | PC-3 > 100 µM | RPMI-8226 > 100 µM | SK-MEL-2 > 100 µM | SK-MEL-5 > 100 µM | SK-OV-3 48.9 µM | SNB-19 > 100 µM | SR > 100 µM | T47D 19.5 µM | TK-10 74.6 µM

CC(C)C1=C(O)C(=O)C2=C(C1=O)C(O)CC1C(C)(C)CCCC21C (stereo unspecified)
inactive: A498 14.3 µM | A549 4.56 µM | BT-549 8.55 µM | CAKI-1 8.05 µM | DU-145 8.3 µM | HL-60 14.9 µM | LOX IMVI 25.1 µM | MDA-MB-435 3.4 µM | NCI-H460 2.88 µM | NCI-H522 21.6 µM | PC-3 10.2 µM | RPMI-8226 4.65 µM | SK-MEL-2 2.84 µM | SK-MEL-5 2.43 µM | SK-OV-3 15 µM | SNB-19 5.38 µM | SR 4 µM | TK-10 14.5 µM
3.71 µM: HCT-15

CCC(C)C1=C(OC(C)=O)[N+]2([O-])Oc3ccc(-c4c(OC(C)=O)c(OC(C)=O)c(-c5ccc(OC(C)=O)cc5)c(OC(C)=O)c4OC(C)=O)cc3OC2(C(C)CC)C(=O)N1OC(C)=O (stereo unspecified)
inactive: A498 > 50 µM | A549 18 µM | CAKI-1 34 µM | DU-145 19.3 µM | HL-60 7.71 µM | LOX IMVI 17.2 µM | MDA-MB-435 17.5 µM | NCI-H460 18.9 µM | NCI-H522 8.53 µM | PC-3 22.5 µM | RPMI-8226 10.3 µM | SK-MEL-2 14.9 µM | SK-MEL-5 11 µM | SK-OV-3 43 µM | SNB-19 30.1 µM | SR 13.7 µM | T47D 10.9 µM | TK-10 37.7 µM
22.5 µM: HCT-15

COc1ccc(C(=O)Sc2c(-c3ccccc3)c(=O)n(-c3ccccc3)c(=S)n2-c2ccccc2)cc1
inactive: A498 15.4 µM | A549 64.1 µM | CAKI-1 > 100 µM | DU-145 > 100 µM | HL-60 60.5 µM | LOX IMVI 74.5 µM | MDA-MB-435 > 100 µM | NCI-H460 > 100 µM | NCI-H522 > 100 µM | PC-3 5.16 µM | SK-OV-3 > 100 µM | SNB-19 43.5 µM | SR 25.4 µM | T47D > 100 µM | TK-10 > 100 µM
> 100 µM: HCT-15

O=S1(=O)OCCOS(=O)(=O)C1(F)Cc1ccccc1
> 100 µM: HCT-15
inactive: A498 > 100 µM | A549 > 100 µM | CAKI-1 > 100 µM | DU-145 > 100 µM | HL-60 > 100 µM | LOX IMVI > 100 µM | MDA-MB-435 > 100 µM | NCI-H460 > 100 µM | NCI-H522 > 100 µM | PC-3 > 100 µM | RPMI-8226 > 100 µM | SK-MEL-2 > 100 µM | SK-MEL-5 > 100 µM | SK-OV-3 > 100 µM | SNB-19 > 100 µM | SR > 100 µM | T47D > 100 µM | TK-10 > 100 µM

CN(c1ccccc1)C(c1ccccc1)C(O)c1ccccc1 (stereo unspecified)
21.7 µM: HCT-15
inactive: A498 22 µM | A549 18.6 µM | CAKI-1 20.5 µM | HL-60 15.5 µM | LOX IMVI 17 µM | NCI-H460 20.1 µM | NCI-H522 20 µM | RPMI-8226 20.8 µM | SK-MEL-2 16.7 µM | SK-MEL-5 19.4 µM | SK-OV-3 22.6 µM | SNB-19 16.8 µM | SR 20.6 µM | TK-10 24.2 µM

c1ccc2c(c1)[Se]c1ccccc1[Se]2
inactive: A498 > 100 µM | A549 53.6 µM | CAKI-1 67.1 µM | HL-60 27.1 µM | LOX IMVI > 100 µM | NCI-H460 38.3 µM | NCI-H522 > 100 µM | RPMI-8226 > 100 µM | SK-MEL-2 > 100 µM | SK-MEL-5 > 100 µM | SK-OV-3 > 100 µM | SNB-19 > 100 µM | SR 85.3 µM | TK-10 78.5 µM

Clc1ccccc1C(SCc1ccccc1)SCc1ccccc1
inactive: A549 > 100 µM | BT-549 > 100 µM | CAKI-1 > 100 µM | DU-145 > 100 µM | HL-60 64.7 µM | NCI-H460 > 100 µM | NCI-H522 > 100 µM | PC-3 > 100 µM | RPMI-8226 > 100 µM | SK-MEL-2 > 100 µM | SK-MEL-5 > 100 µM | SNB-19 > 100 µM | SR > 100 µM | TK-10 > 100 µM
75.2 µM: HCT-15
